{"source": "patent US20060159676A1", "about": "“Methods for modulating angiogenesis, lymphangiogenesis, and apoptosis with apelin compositions” (priority 2005, published 2006)", "key": {"bEnd3 cells": {"test_system": "bEnd3 cells", "settings": "apelin 10 ng/ml in bottom chamber; VEGF 50 ng/ml as comparison", "protocol": "Cell migration assays were performed using the bEnd3 cells in Transwell cell culture migration chambers (FIG. 20). The cells were plated in serum free medium in the upper chamber of the migration chamber. […] The cells that migrated to the bottom chamber were visualized by DAPI stain of the nuclei of the cells (Panels A, B, and C)."}, "CAM blood vessels": {"test_system": "CAM blood vessels", "assay": "Chick chorioallantoic membrane (CAM) assay", "assay_type": "in vivo, chicken", "settings": "50 ng on filter disc, three days, vs PBS", "protocol": "Chicken eggs were incubated at 37° C. in a humidified chamber. On day 10 of development, a small window was made in the outer shell of the egg, and the CAM was released from its attachment to the inner shell membrane. A larger window was then made in the egg to allow for addition of the filter paper containing growth factor. Filter discs (3 MM Whatman) of 7-8 mm diameter were pretreated with 10 μl of 0.1% cortisone acetate (Sigma) solution to avoid inflammation of the CAM. The filter discs were air dried prior to application of growth factors. […] After air-drying, the filter discs were placed on the CAM, and eggs were returned to the incubator for three days. Filter discs and the attached CAM were then excised, washed with PBS, trimmed to the size of the disc, and photographed for quantitative analysis (FIGS. 7A and 7B). The number of vessel branch points was determined using a blind protocol. The results are shown as the mean of three independent experiments ±s.e.m. (FIG. 7C)."}, "[1]": {"test_system": "BAE/APJ#2 cells (bovine aortic endothelial cells expressing mouse APJ)", "assay": "BAE/APJ#2 endothelial cell proliferation (BrdU incorporation)", "assay_type": "cell-based", "settings": "10 ng/ml, 24 hours, after 48 hours serum starvation", "protocol": "SU1498 was included in proliferation cultures at a concentration of 10 ng/ml and results were assayed using BrdU incorporation. After growth factor incubation, BrdU was added to each well at a final concentration of 10 μM for 2 hours, cells were washed, and fixed for BrdU immunocytochemistry.\nCells were fixed in 100% ice cold methanol at 4° C. for 2 hours to overnight. Prior to staining, cells were air dried and rehydrated for 3 minutes with PBS buffer. DNA was denatured at 37° C. with 2 M HCl, and neutralized with 2 washes for 5 minutes in 0.1 M borate buffer (pH 8.5). […] FITC-labeled anti-BrdU antibody (5 μg/ml) in block was added for 1 hour at room temperature. Cells were counterstained with propidium iodide following several washes in PBS buffer. For each experiment, 4 random fields were photographed for determination of percentage BrdU labeling."}, "lymphatic vessels": {"test_system": "lymphatic vessels", "assay": "In vivo lymphatic vessel branching assay, quail CAM", "settings": "collagen disk with 50 ng apelin or 100 ng VEGF-C on CAM of 7 day quail embryos, 18 hours", "protocol": "All experiments were carried out using chorioallantoic membranes (CAMs) of quail embryos. Quail embryos used for the lymphatic experiments were 7 days old. Collagen purified from rat tails (Bernanke and Markwald, 1982) was polymerized in 2 mm disks at a final concentration of approximately 1.6 mg/ml in standard phosphate buffered saline (PBS). The total volume of the collagen disk was approximately 10 μl. For experimental treatments, the collagen disks were supplemented with either 50 ng of apelin peptide or 100 ng of VEGF-C protein prior to polymerization at 37° C. for 30 minutes. The VEGF-C was a positive control for these experiments. (Recombinant Human VEGF-C (Cys156Ser), R&D Systems, cat # 752-vc). Apelin peptide was synthesized by Sigma-Genosys (>90% purity).\nFor lymphangiogenesis assays, the CAMs of 7 day quail embryos were exposed, in ovo, and the collagen disks were placed directly onto the surface of the CAM. […]\nThe samples were incubated with primary antibody (Prox1, Research Diagnostics, cat # RDI-102PA30, diluted to 2 μg/ml final concentration) for 4 hours at room temperature or overnight at 4° C. […] Both the lymphatic cell number as well as the number of lymphatic branches were determined.\nBoth blood vessels and lymphatic vessels were stained with the QH-1 antibody. […] The number of lymphatic vessels branching away from blood vessels (towards the collagen disk) were counted. […]"}}}
{"substance": "Apelin-13", "values": [{"measurement": "endothelial cell migration (chemotaxis)", "setting": "bEnd3 cells", "value": "acts as chemotactic agent for the endothelial cells to the same extent as VEGF"}, {"measurement": "blood vessel formation", "setting": "CAM blood vessels", "value": "increased"}, {"measurement": "leakage of blood vessels", "setting": "CAM blood vessels", "value": "increased"}, {"measurement": "endothelial cell proliferation (BrdU labeling)", "setting": "[1]", "value": "promotes endothelial cell proliferation to a similar extent as VEGF"}, {"measurement": "number of lymphatic vessels branching away from blood vessels", "setting": "lymphatic vessels", "value": "positive regulator of lymphatic branching angiogenesis"}]}
